The term IC50 denotes the midpoint of a concentration-inhibition curve. As a reminder, the AC50 is the concentration at which the activity in the assay is half-maximal.

This is an account of results in ChEMBL document CHEMBL1201862, “PubChem BioAssay data set” (2004).

Activity calls are given as the source filed them.

One test addresses Ephrin type-A receptor 4 (Mus musculus, UniProt Q03137). The test is described as follows: inhibitors of EphA4 binding to KYL peptide, primary screen, biochemical, colorimetric, mouse EphA4 (AID 689). The format is functional.
The target in the next test is Caspase-8 (Homo sapiens, UniProt Q14790). The test can be described thus: caspase-8 inhibition counter-screen, dose response, selectivity assay for caspase-6 inhibitor project, biochemical, Z-IETD-R110 fluorescence, cherry-picked samples (AID 743294).
Test [1] deals with Induced myeloid leukemia cell differentiation protein Mcl-1 (Homo sapiens, UniProt Q07820). The test is classed as functional.
The target in test [2] is Eukaryotic translation initiation factor 4E (Mus musculus, UniProt P63073). The test is described as follows: eIF4E–eIF4G protein interaction inhibitors, dose response, biochemical, TR-FRET (AID 855).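 Note: potency for disrupting eIF4E binding to eIF4GI seen as loss of FRET.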 The test is classed as functional.
The target of a further test is Caspase-9 (Homo sapiens, UniProt P55211). The test is described as follows: caspase-9 enzyme inhibition, dose response, selectivity assay for caspase-6 inhibitor project, biochemical, fluorescence, plate reader, cherry-picked samples (AID 743293).
The target in a further test is T1, Caspase-6 (Homo sapiens, UniProt P55212).
T1 sequence (P55212 whole entry): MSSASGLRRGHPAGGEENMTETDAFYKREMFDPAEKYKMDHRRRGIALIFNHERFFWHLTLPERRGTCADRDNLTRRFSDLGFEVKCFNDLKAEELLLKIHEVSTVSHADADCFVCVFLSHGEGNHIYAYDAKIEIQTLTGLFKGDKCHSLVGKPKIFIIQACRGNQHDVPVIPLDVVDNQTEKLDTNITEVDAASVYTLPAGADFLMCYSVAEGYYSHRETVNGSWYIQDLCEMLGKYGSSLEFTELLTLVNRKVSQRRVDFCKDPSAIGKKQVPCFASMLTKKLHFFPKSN
The test is described as follows: human caspase-6 inhibitors, dose response, biochemical, VEID-R110 fluorescence, cherry-pick (AID 720632).

The target of another test is Caspase-7 (Homo sapiens, UniProt P55210). The test is described as follows: human caspase-7 inhibitors, dose response, selectivity assay for caspase-6 inhibitor project, biochemical, DEVD-R110 fluorescence, cherry-pick (AID 743295). The test is classed as […].
Test [3] is described as follows: cytotoxicity in COV362 ovarian cancer cells, dose response, cytotoxicity control for PAX8 inhibitor project, cell-based, plate reader, dry powder, SA12 (AID 743144). The test is classed as functional.
A short description of test [4]: cytotoxicity in OVCAR8 ovarian cancer cells, dose response, PAX8 project, cell-based, plate reader, dry powder samples (AID 743197). Conditions: OVCAR-8. The test is classed as functional.
Test [5] is described as follows: NIH:OVCAR-3 ovarian cancer cell cytotoxicity, dose response, PAX8 inhibitor project, plate reader, dry powder samples (AID 743044). The test is classed as functional, cell-based.
Test [6] is described as follows: cytotoxicity in OVCAR4 cells, dose response, cytotoxicity control for PAX8 inhibitor project, cell-based, plate reader, dry powder, SA11 (AID 743150). The test is classed as functional. Conditions: OVCAR-4.
Test [7] can be described thus: cytotoxicity dependent on PAX8, dose response, cell-based, plate reader, dry powder (AID 743049). The test is classed as functional.
Test [8] in a line: cytotoxicity in COV434 cells, dose response, cytotoxicity control for PAX8 inhibitor project, cell-based, plate reader, dry powder, SA7 (AID 743145). The test is classed as functional.
The nature of test [9]: PAX5 activity inhibitors, dose response, selectivity assay for PAX8 inhibitor project, cell-based, plate reader, dry powder samples (AID 743047).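 Note: HEK293 cells carrying a Pax5 driven CD19 promoter luciferase reporter; potency of inhibitors that lower reporter luminescence.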 The test is classed as functional.
The target in a further test is Paired box protein Pax-8 (Homo sapiens, UniProt Q06710). The test is described as follows: inhibitors of PAX8-driven TPO luciferase reporter, dose response, RMG-I cells, cherry-pick (AID 687027).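 Note: luciferase reporter driven by Pax8 target thyroperoxidase promoter measured by SteadyGlo luminescence.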 The format is functional, cell-based. On the technique in general: Reporter assays use an easily measured gene product as a stand-in for the process of interest.
Test [10] can be described thus: PAX2 cell-based inhibition, dose response, selectivity assay for PAX8 inhibitor project, plate reader, dry powder samples (AID 743048).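 Note: HEK293 cells carrying a WT1 promoter luciferase reporter driven by expressed Pax2; potency is for inhibition of Pax2 driven reporter signal.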 The test is classed as functional.
A short description of test [11]: cytotoxicity in OV-90 ovarian cancer cells, dose response, PAX8 inhibitor project, cell-based, plate reader, dry powder, SA8 (AID 743149). The format is functional.
Test [12] in a line: P. falciparum Dd2 growth inhibitors, dose response, SYBR Green, dry powder samples (AID 1159566).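 Note: potency for growth inhibition with lower SYBR green DNA signal.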 The test is classed as functional, cell-based.
Test [13] is described as follows: P. falciparum 3D7-ScDHODH growth inhibitors, dose response, SYBR Green, dry powder samples (AID 1159570).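 Note: parasite growth measured after 72 hours of compound exposure.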 The format is functional, cell-based.
Test [14] can be described thus: P. falciparum Dd2 growth inhibitors, dose response, SYBR Green, cherry-picked samples (AID 1159567). The test is classed as functional, cell-based.
Test [15] in a line: HepG2 cell cytotoxicity, dose response, cytotoxicity control, plate reader, dry powder samples (AID 1159569).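 Note: inhibitor potency with signal falling toward the positive control level.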 The test is classed as functional, cell-based.
A short description of test [16]: P. falciparum ATP4 D1247Y mutant growth inhibitors, dose response, NITD609-resistant line, SYBR Green, dry powder (AID 1159571).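 Note: parasites synchronized at ring stage by sorbitol before testing.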 The format is functional, cell-based.
Test [17] has as its target Oxysterols receptor LXR-beta (Homo sapiens, UniProt P55055). The test can be described thus: LXR agonists, Gal4 luciferase reporter, dose response, counter-screen for ssDAF-12 agonist project, cell-based, luminescence, HEK293, S. stercoralis campaign (AID 720737). The test is classed as functional. The settings on record: read-out: IC50 (the source's name).
Test [18] in a line: Luminescence-based cell-based high throughput dose response assay to identify activators of the DAF-12 from the parasite S. stercoralis (ssDAF-12). The format is functional.

Oxysterols receptor LXR-beta, sequence (P55055 whole entry, the tested form may be a part): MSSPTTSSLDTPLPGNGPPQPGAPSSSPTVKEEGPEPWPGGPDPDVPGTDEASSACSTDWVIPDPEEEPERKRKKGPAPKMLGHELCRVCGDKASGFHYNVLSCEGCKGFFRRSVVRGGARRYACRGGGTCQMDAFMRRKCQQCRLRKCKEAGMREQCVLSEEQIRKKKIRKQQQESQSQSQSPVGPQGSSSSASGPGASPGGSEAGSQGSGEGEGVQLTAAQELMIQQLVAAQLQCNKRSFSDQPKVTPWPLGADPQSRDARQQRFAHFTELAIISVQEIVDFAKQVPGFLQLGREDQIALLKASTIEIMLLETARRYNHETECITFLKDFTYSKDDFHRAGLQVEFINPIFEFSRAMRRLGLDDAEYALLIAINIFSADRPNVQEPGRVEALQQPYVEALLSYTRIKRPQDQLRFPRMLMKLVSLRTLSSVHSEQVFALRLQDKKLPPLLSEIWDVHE
Caspase-8, sequence (Q14790 217-374 limits assumed): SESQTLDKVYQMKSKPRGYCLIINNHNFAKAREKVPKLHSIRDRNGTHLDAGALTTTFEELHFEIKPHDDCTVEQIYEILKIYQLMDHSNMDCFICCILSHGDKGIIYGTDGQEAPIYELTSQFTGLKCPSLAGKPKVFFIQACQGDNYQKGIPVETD
Caspase-8, sequence (Q14790 385-479 limits assumed): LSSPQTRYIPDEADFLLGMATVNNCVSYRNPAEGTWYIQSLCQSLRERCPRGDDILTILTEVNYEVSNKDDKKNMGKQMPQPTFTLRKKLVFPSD
Caspase-9, sequence (P55211 1-315 limits assumed): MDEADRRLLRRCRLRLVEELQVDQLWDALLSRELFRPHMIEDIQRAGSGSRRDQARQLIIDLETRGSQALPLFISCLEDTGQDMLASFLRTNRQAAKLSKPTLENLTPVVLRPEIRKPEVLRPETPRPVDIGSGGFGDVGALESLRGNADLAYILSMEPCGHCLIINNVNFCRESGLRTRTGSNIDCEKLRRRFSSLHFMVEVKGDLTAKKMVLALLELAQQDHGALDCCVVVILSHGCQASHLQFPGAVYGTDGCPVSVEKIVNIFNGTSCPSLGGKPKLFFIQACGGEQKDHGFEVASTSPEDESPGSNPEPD
Caspase-9, sequence (P55211 331-416 limits assumed): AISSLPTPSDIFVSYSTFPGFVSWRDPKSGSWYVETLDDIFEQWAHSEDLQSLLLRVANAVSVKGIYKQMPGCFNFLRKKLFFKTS
Ephrin type-A receptor 4, sequence (Q03137 whole entry): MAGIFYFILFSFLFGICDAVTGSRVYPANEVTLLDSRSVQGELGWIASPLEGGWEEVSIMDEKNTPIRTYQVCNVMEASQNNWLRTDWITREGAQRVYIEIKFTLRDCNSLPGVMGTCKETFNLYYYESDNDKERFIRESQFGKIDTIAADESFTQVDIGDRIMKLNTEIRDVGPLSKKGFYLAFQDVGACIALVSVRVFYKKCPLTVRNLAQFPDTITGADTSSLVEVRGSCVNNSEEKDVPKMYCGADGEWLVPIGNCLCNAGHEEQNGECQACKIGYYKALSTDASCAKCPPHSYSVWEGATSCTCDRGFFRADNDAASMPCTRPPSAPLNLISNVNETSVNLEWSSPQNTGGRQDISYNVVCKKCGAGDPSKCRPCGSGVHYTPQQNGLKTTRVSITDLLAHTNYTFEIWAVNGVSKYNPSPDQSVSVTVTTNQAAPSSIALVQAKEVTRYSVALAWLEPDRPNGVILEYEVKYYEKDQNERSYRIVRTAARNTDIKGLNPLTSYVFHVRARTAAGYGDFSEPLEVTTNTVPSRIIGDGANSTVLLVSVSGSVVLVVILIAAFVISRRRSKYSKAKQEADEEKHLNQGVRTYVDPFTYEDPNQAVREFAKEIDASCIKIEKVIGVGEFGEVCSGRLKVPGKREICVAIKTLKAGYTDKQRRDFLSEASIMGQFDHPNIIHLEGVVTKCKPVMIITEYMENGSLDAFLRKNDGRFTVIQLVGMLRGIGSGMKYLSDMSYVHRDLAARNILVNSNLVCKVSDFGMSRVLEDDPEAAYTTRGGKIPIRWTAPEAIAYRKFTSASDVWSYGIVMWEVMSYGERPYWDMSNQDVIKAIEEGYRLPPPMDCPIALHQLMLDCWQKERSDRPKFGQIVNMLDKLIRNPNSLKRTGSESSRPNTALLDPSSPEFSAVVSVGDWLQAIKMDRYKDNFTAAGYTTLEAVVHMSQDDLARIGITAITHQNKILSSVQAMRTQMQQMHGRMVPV
Caspase-7, sequence (P55210 24-198 limits assumed): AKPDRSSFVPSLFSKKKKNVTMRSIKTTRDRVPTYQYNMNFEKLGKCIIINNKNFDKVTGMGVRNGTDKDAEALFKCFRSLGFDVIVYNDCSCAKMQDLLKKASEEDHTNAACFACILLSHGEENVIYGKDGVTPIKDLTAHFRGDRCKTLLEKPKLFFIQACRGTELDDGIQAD
Caspase-7, sequence (P55210 207-303 limits assumed): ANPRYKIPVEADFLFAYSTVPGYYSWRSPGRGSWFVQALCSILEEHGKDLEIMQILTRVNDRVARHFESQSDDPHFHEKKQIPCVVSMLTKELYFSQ
Paired box protein Pax-8, sequence (Q06710 whole entry): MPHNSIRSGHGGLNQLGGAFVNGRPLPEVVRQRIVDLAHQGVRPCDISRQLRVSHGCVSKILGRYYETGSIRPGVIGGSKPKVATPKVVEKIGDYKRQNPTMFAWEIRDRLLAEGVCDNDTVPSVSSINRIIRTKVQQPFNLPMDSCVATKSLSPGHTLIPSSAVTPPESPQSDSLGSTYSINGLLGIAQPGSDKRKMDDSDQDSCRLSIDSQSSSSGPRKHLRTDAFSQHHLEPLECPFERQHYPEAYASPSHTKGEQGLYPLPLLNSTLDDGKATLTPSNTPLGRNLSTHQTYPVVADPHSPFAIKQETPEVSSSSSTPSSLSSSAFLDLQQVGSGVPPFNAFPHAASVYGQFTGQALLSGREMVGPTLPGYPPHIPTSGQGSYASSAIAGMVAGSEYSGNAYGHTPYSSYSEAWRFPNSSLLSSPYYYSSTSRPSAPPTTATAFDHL
Induced myeloid leukemia cell differentiation protein Mcl-1, sequence (Q07820 whole entry): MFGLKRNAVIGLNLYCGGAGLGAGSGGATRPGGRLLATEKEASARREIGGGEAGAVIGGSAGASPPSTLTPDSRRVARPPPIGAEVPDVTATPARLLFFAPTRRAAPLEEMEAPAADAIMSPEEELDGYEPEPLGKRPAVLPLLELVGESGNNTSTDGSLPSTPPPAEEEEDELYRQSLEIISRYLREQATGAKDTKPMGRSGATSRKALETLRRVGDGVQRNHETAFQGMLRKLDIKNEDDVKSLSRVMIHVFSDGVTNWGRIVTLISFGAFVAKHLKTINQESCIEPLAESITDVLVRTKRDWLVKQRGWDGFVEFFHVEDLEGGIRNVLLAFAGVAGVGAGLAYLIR
Eukaryotic translation initiation factor 4E, sequence (P63073 whole entry): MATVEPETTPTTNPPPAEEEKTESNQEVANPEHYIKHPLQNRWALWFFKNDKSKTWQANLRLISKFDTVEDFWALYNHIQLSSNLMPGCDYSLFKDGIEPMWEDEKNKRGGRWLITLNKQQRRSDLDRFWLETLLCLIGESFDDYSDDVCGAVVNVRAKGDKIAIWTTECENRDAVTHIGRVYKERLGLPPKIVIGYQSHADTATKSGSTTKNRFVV

On to `COc1ccc(S(=O)(=O)Nc2cc(Sc3nc[nH]n3)c(O)c3ccccc23)cc1`, for which the IC50 on Ephrin type-A receptor 4 was 6.77 µM (active); in test [1], 7.73 µM (active); in [2], > 64 µM (inactive). Besides, the AC50 at Caspase-8 is 22 µM (active); at Caspase-9, 31.6 µM (active); on Caspase-6, 998 nM (active); on Caspase-7 it was 8.7 µM (active).

Turning to `C[C@@H]1CN([C@@H](C)CO)C(=O)Cc2cc(NS(=O)(=O)c3ccccc3)ccc2O[C@H]1CN(C)Cc1ccc(C(F)(F)F)cc1`, the AC50 in [3] was 31.6 µM (active); in [4] it was 23.9 µM (active); in test [5], 23.4 µM (active); in test [6], 45.6 µM (active); in test [7] it was 11.1 µM (active); in test [8], 32.6 µM (active). The AC50 was 18.8 µM (active) in [9], 6.03 µM (active) on Paired box protein Pax-8, 17 µM (active) in [10] and 28.5 µM (active) in test [11].

Turning to `CO[C@@H]1CN(C)C(=O)c2cc(NC(=O)Nc3ccc(C(F)(F)F)cc3)ccc2OC[C@H](C)NC[C@H]1C`, the AC50 in test [12] was 2.28 µM (active); in test [13], 1.61 µM (active); in [14], 2.01 µM (active); in test [15], 19.3 µM (active); in test [16], 3.24 µM (active).

Consider `O=C(NCc1cccs1)c1cccc2c(-c3ccc(F)c(F)c3)coc12`, for which the EC50 in [17] is > 67.5 µM (inactive). Also, in test [18], the IC50 is > 67.5 µM (inactive).
